One data set addresses T1, hP2X7 (Homo sapiens, UniProt Q99572).
T1 construct: 1321N1 cells stably expressing the full length human P2X7 gene (1321N1-hP2X7); expressed in transfected cells
T1 sequence (Q99572 1-595): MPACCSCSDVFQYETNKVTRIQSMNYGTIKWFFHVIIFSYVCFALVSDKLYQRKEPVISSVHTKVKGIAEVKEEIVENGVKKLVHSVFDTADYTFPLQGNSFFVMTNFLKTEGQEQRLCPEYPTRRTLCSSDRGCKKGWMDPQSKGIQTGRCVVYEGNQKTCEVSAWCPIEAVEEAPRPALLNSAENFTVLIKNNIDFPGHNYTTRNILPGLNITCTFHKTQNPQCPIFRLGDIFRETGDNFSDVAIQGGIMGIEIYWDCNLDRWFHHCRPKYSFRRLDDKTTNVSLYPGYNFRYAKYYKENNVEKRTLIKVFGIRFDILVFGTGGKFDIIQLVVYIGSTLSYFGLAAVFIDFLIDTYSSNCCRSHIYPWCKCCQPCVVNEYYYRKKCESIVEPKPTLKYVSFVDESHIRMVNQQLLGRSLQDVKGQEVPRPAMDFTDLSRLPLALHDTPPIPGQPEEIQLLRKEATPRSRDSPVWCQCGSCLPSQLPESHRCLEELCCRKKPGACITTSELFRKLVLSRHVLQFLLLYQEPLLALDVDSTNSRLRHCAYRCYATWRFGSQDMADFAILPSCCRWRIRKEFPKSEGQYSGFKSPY
Nature of the data set: Intracellular Calcium Flux (FLIPR) Assay. Format: cell-based. The settings on record: 1321N1 cells stably expressing human P2X7; agonist 100 μM BzATP; 20 min equilibration with antagonist; read-out: FLIPR pIC50 hP2X7-1321n1 (converted). The procedure: Stock solutions of compounds were prepared from powders as a 10 mM DMSO stock solution. These solutions were stored at RT during the two week period of these experiments to prevent freeze-thaw of the DMSO stocks. The DMSO stocks were added to the appropriate assay buffer at a concentration of 10 μM, and then diluted serially to the final concentrations that were tested. No observable precipitate was formed at any time during this process. The aqueous solutions of compounds as well as ATP (Sigma A7699) and BzATP (Sigma B6396) were prepared fresh for each day of experiment.
1321N1 cells stably expressing the full length human P2X7 gene (1321N1-hP2X7) and HEK293 cells stably expressing the full length rat P2X7 gene (HEK293-rP2X7) were obtained from the Roche Cell Culture Facility. 1321N1-hP2X7 cells were grown in Dulbecco's Modified Eagle's Medium (DMEM) high glucose supplemented with 10% FBS and 250 μg/mL G418. HEK293-rP2X7 cells were grown in DMEM/F-12 supplemented with 10% FBS, 1 mM CaCl2, 2 mM MgCl2, 2 mM L-Glutamine and 500 μg/ml G418. Cells were split such that they never became >70% confluent.
On the day prior to the experiment, 1321N1-hP2X7 or HEK293-rP2X7 cells were released into suspension with calcium-free PBS+Versene and washed by centrifugation with calcium-free PBS to remove the Versene. Cells were resuspended in growth medium at a density of 2.5×10^5 cells/mL and seeded into black walled, clear bottom 96 well plates (50,000 cells/well) approximately 18 hr prior to intracellular calcium flux experiments.
On the day of the experiment, plates were washed with FLIPR buffer (calcium- and magnesium-free Hank's Balanced Salt Solution (HBSS) supplemented with 10 mM Hepes, 2.5 mM probenecid and 2 mM calcium chloride) using a BIO-TEK 96 channel plate washer and incubated with […] fluo-3 dye at 37° C. for one hr. The dye was then removed by plate washing and the cells were allowed to equilibrate for 20 min at room temperature with antagonist or vehicle (FLIPR buffer). Agonist (100 μM BzATP final concentration for hP2X7; 5 μM BzATP final concentration or rP2X7) was added online with the FLIPR and fluorescence measurements made at 1 sec intervals for 60 sec followed by 3 sec intervals for a further 4 min (5 min total). A final addition of 5 μM ionomycin was made and the maximal BzATP-evoked fluorescence normalized to the maximal ionomycin-evoked fluorescence.
(Calcium assays in cells follow changes in intracellular calcium, usually with a dye or a luminescent sensor.)

With `O=C(NCC12CC3CC(CC(C3)C1)C2)[C@@H]1CCCN(c2cccc3c2C(=O)N(Cc2ccncc2)C3=O)C1` [Compound I-3, (R)-1-(1,3-Dioxo-2-pyridin-4-ylmethyl-2,3-dihydro-1H-isoindol-4-yl)-piperidine-3-carboxylic acid (adamantan-1-ylmethyl)-amide], the IC50 on hP2X7 is 107 nM. Still for that read-out and setting: the same measure for `CSc1ccccc1CNC(=O)[C@@H]1CCCN(c2cccc3c2C(=O)N(Cc2ccncc2)C3=O)C1` [Compound I-12, (R)-1-(1,3-Dioxo-2-pyridin-4-ylmethyl-2,3-dihydro-1H-isoindol-4-yl)-piperidine-3-carboxylic acid 2-methylsulfanyl-benzylamide]: 30.9 nM. With `C[C@H](CO)N1Cc2c(ccc(Cl)c2NC(=O)Cc2ccc(F)c(C(F)(F)F)c2)C1=O` [Compound I-17, N-[5-Chloro-2-((R)-2-hydroxy-1-methyl-ethyl)-1-oxo-2,3-dihydro-1H-isoindol-4-yl]-2-(4-fluoro-3-trifluoromethyl-phenyl)-acetamide], the IC50 at hP2X7 is 174 nM. For `COc1ccccc1CNC(=O)[C@@H]1CCCN(c2cccc3c2C(=O)N(Cc2cncs2)C3=O)C1` [Compound I-6, (R)-1-(1,3-Dioxo-2-thiazol-5-ylmethyl-2,3-dihydro-1H-isoindol-4-yl)-piperidine-3-carboxylic acid 2-methoxy-benzylamide], at hP2X7, the IC50 is 417 nM. Turning to `COc1ccccc1CNC(=O)[C@@H]1CCCN(c2cccc3c2C(=O)N(CC2CCOCC2)C3=O)C1` [Compound I-5, (R)-1-[1,3-Dioxo-2-(tetrahydro-pyran-4-ylmethyl)-2,3-dihydro-1H-isoindol-4-yl]-piperidine-3-carboxylic acid 2-methoxy-benzylamide], the IC50 at hP2X7 is 355 nM. Usually melting point stands for the temperature of the solid-liquid transition. With `COC[C@@H](C)N1Cc2c(ccc(Cl)c2NC(=O)Cc2ccc(F)c(C(F)(F)F)c2)C1=O` [Compound I-21, N-[5-Chloro-2-((R)-2-methoxy-1-methyl-ethyl)-1-oxo-2,3-dihydro-1H-isoindol-4-yl]-2-(4-fluoro-3-trifluoromethyl-phenyl)-acetamide], the melting point fell in the range of 131 to 132 °C. Besides, the IC50 at hP2X7 was 389 nM. With `COc1ccccc1CNC(=O)[C@H]1CCCN(c2cccc3c2C(=O)N(Cc2ccncc2)C3=O)C1` [Compound I-2, (S)-1-(1,3-Dioxo-2-pyridin-4-ylmethyl-2,3-dihydro-1H-isoindol-4-yl)-piperidine-3-carboxylic acid 2-methoxy-benzylamide], the IC50 at hP2X7 was 741 nM. In turn, `O=C(NCc1ccccc1F)[C@@H]1CCCN(c2cccc3c2C(=O)N(Cc2ccncc2)C3=O)C1` [Compound I-13, (R)-1-(1,3-Dioxo-2-pyridin-4-ylmethyl-2,3-dihydro-1H-isoindol-4-yl)-piperidine-3-carboxylic acid 2-fluoro-benzylamide] gave a melting point of 196 to 197 °C. Moreover, the IC50 at hP2X7 was 110 nM. As for `COCCN1Cc2c(ccc(Cl)c2NC(=O)Cc2ccc(F)c(C(F)(F)F)c2)C1=O` [Compound I-20, N-[5-Chloro-2-(2-methoxy-ethyl)-1-oxo-2,3-dihydro-1H-isoindol-4-yl]-2-(4-fluoro-3-trifluoromethyl-phenyl)-acetamide], the IC50 at hP2X7 was 891 nM. In the case of `CS(=O)(=O)c1ccccc1CNC(=O)[C@@H]1CCCN(c2cccc3c2C(=O)N(Cc2ccncc2)C3=O)C1` [Compound I-16, (R)-1-(1,3-Dioxo-2-pyridin-4-ylmethyl-2,3-dihydro-1H-isoindol-4-yl)-piperidine-3-carboxylic acid 2-methanesulfonyl-benzylamide], the melting point lay in the range of 101 to 102 °C. On hP2X7, the IC50 is 204 nM. Compound `CCOc1ccccc1CNC(=O)[C@@H]1CCCN(c2cccc3c2C(=O)N(Cc2ccncc2)C3=O)C1` [Compound I-9, (R)-1-(1,3-Dioxo-2-pyridin-4-ylmethyl-2,3-dihydro-1H-isoindol-4-yl)-piperidine-3-carboxylic acid 2-ethoxy-benzylamide] registered a melting point of 194 to 195 °C. Besides, the IC50 at hP2X7 was 955 nM. `O=C(NCc1ccccc1O)[C@@H]1CCCN(c2cccc3c2C(=O)N(Cc2ccncc2)C3=O)C1` [Compound I-11, (R)-1-(1,3-Dioxo-2-pyridin-4-ylmethyl-2,3-dihydro-1H-isoindol-4-yl)-piperidine-3-carboxylic acid 2-hydroxy-benzylamide] displayed a melting point of 181 to 182 °C. Moreover, the IC50 on hP2X7 is 100 nM. As for `C[C@H](CO)N1Cc2c(NC(=O)CC34CC5CC(CC(C5)C3)C4)c(Cl)cc(Cl)c2C1=O` [Compound I-18b, 2-Adamantan-1-yl-N-[5,7-dichloro-2-((R)-2-hydroxy-1-methyl-ethyl)-1-oxo-2,3-dihydro-1H-isoindol-4-yl]-acetamide], the IC50 on hP2X7 was 537 nM. Compound `O=C(NCC1COCCO1)[C@@H]1CCCN(c2cccc3c2C(=O)N(Cc2ccncc2)C3=O)C1` (stereo partly drawn) [Compound I-14, (R)-1-(1,3-Dioxo-2-pyridin-4-ylmethyl-2,3-dihydro-1H-isoindol-4-yl)-piperidine-3-carboxylic acid ([1,4]dioxan-2-ylmethyl)-amide] came in with a melting point of 186 to 187 °C. For the same compound, the IC50 on hP2X7 is 912 nM. Consider `COc1ccccc1CNC(=O)[C@@H]1CCCN(c2cccc3c2C(=O)N(Cc2ccncc2)C3=O)C1` [Compound I-1b, (R)-1-(1,3-Dioxo-2-pyridin-4-ylmethyl-2,3-dihydro-1H-isoindol-4-yl)-piperidine-3-carboxylic acid 2-methoxy-benzylamide], for which, on hP2X7, the IC50 is 55 nM. As to `COCC(C)N1Cc2c(NC(=O)Cc3ccc(F)c(C(F)(F)F)c3)cccc2C1=O` (stereo not shown) [Compound I-19, 2-(4-Fluoro-3-trifluoromethyl-phenyl)-N-[2-(2-methoxy-1-methyl-ethyl)-1-oxo-2,3-dihydro-1H-isoindol-4-yl]-acetamide], the melting point was 151 to 152 °C. The IC50 on hP2X7 is 331 nM. The compound `COc1cccc(CNC(=O)[C@@H]2CCCN(c3cccc4c3C(=O)N(Cc3ccncc3)C4=O)C2)c1OC` [Compound I-10, (R)-1-(1,3-Dioxo-2-pyridin-4-ylmethyl-2,3-dihydro-1H-isoindol-4-yl)-piperidine-3-carboxylic acid 2,3-dimethoxy-benzylamide] registered a melting point of 199 to 200 °C. Also, on hP2X7, the IC50 was 182 nM. In the case of `COc1ccccc1CNC(=O)C1CCCN(c2cccc3c2C(=O)N(Cc2ccncc2)C3=O)C1` (stereo not shown) [Compound I-1a, 1-(1,3-Dioxo-2-pyridin-4-ylmethyl-2,3-dihydro-1H-isoindol-4-yl)-piperidine-3-carboxylic acid 2-methoxy-benzylamide], at hP2X7, the IC50 was 155 nM. Take `COc1ccccc1NC(=O)[C@@H]1CCCN(c2cccc3c2C(=O)N(Cc2ccncc2)C3=O)C1` [Compound I-4, (R)-1-(1,3-Dioxo-2-pyridin-4-ylmethyl-2,3-dihydro-1H-isoindol-4-yl)-piperidine-3-carboxylic acid (2-methoxy-phenyl)-amide]: the IC50 at hP2X7 was 724 nM. `C[C@H](CO)N1Cc2c(ccc(Cl)c2NC(=O)CC23CC4CC(CC(C4)C2)C3)C1=O` [Compound I-18a, 2-Adamantan-1-yl-N-[5-chloro-2-((R)-2-hydroxy-1-methyl-ethyl)-1-oxo-2,3-dihydro-1H-isoindol-4-yl]-acetamide]: at hP2X7, the IC50 is 39.8 nM.

The values are drawn from patent US20120157494A1, “ISOINDOLYL COMPOUNDS” (priority 2010, published 2012).
